Experimental data reported in BindingDB's records for doi:10.1021/cb500956g (University of North Carolina At Chapel Hill, 2015).

Key:
Details in all cases: pH 8
[1] = molecular target: T1, Chromobox protein homolog 7 (Homo sapiens, UniProt O95931); test: AlphaScreen Assay
T1 sequence (O95931 whole entry): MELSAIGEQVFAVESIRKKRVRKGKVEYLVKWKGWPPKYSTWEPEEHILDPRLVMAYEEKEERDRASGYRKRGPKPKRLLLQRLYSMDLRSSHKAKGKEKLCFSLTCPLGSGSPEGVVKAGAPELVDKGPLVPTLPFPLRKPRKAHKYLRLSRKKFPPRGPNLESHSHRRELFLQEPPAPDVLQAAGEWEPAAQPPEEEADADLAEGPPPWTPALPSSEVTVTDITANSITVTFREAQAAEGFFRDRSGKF
Experimental: (§1) In brief, compound plates (1 μL at 10 mM highest concentration; 3-fold, 10-point dilutions in DMSO) were diluted in 1X assay buffer (20 mM TRIS pH 8.0, 25 mM NaCl, 2 mM DTT and 0.05% Tween-20) to 1 mM using a Multimek robotic pipettor (Nanoscreen), and 1 μL was spotted into the wells of 384-well low-volume Proxiplates (PerkinElmer). To these plates was added 9 μL of protein−peptide mix in a 1X assay buffer by Multidrop (Thermo) to bring the final compound concentration to 100 μM, and this was incubated for 30 min at RT. Next, 2 μL of a 1:1 mixture of streptavidin-conjugate donor and nickel-chelate acceptor beads (45μg/mL in 1X assay buffer) were added, and the plates were allowed to incubate for an additional 30 min in the dark at RT. After incubation, the plates were read on an EnVision multilabel reader equipped with an HTS AlphaScreen laser (PerkinElmer).

[2] = molecular target: T2, E3 ubiquitin-protein ligase UHRF1 (Homo sapiens, UniProt Q96T88); test: AlphaScreen Assay
T2 sequence (Q96T88 whole entry): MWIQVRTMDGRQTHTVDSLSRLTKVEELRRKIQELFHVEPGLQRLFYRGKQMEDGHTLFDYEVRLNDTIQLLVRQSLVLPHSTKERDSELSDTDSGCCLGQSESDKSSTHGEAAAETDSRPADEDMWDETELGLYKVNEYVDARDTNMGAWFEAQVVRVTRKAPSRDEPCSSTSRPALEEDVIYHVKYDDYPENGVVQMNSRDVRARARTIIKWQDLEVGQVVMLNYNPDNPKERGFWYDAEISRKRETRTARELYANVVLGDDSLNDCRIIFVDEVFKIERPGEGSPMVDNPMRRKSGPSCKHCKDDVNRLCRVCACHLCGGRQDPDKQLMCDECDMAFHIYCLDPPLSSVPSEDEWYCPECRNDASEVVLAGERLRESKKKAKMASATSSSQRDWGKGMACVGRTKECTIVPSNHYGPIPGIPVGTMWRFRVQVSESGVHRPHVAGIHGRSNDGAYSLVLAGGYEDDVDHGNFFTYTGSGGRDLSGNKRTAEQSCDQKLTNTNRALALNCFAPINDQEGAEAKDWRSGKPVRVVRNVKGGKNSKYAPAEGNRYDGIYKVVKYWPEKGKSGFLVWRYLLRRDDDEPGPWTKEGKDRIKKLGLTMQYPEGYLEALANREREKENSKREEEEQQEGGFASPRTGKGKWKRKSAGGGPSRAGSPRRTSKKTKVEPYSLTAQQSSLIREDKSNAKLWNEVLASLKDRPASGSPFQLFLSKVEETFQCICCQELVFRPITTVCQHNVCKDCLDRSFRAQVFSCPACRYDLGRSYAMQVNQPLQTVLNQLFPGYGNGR
Experimental: as §1

[3] = molecular target: T3, Isoform 4 of Lethal(3)malignant brain tumor-like protein 1 (4) (Homo sapiens, UniProt Q9Y468); test: AlphaScreen Assay
T3 sequence (Q9Y468 whole entry): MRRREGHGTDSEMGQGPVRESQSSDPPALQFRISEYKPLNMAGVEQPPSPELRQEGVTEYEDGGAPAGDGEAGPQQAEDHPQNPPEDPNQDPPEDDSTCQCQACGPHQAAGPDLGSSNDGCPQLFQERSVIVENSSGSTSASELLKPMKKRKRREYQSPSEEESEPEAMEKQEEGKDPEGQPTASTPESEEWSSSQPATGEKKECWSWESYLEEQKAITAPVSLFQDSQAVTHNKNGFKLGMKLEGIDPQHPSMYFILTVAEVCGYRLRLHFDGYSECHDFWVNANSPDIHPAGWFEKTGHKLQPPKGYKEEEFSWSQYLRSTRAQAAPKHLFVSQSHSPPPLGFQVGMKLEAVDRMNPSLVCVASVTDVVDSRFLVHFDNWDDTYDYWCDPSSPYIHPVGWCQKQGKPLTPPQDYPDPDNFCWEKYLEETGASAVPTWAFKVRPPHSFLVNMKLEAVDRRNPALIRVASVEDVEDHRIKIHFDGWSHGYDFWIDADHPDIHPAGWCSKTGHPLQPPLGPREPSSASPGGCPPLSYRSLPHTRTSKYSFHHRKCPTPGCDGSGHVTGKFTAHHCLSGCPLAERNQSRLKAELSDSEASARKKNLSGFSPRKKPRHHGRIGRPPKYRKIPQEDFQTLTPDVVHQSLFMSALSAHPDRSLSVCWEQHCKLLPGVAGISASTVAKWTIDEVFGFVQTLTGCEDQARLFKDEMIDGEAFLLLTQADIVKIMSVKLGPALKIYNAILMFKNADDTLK
Experimental: as §1

[4] = molecular target: Lysine-specific demethylase 5A (Homo sapiens, UniProt P29375); test: AlphaScreen Assay
Experimental: as §1

[5] = molecular target: MBT domain-containing protein 1 (Homo sapiens, UniProt Q05BQ5); test: AlphaScreen Assay
Experimental: as §1

PHD finger protein 1 = molecular target: T4, PHD finger protein 1 (Homo sapiens, UniProt O43189); test: AlphaScreen Assay
T4 sequence (O43189 whole entry): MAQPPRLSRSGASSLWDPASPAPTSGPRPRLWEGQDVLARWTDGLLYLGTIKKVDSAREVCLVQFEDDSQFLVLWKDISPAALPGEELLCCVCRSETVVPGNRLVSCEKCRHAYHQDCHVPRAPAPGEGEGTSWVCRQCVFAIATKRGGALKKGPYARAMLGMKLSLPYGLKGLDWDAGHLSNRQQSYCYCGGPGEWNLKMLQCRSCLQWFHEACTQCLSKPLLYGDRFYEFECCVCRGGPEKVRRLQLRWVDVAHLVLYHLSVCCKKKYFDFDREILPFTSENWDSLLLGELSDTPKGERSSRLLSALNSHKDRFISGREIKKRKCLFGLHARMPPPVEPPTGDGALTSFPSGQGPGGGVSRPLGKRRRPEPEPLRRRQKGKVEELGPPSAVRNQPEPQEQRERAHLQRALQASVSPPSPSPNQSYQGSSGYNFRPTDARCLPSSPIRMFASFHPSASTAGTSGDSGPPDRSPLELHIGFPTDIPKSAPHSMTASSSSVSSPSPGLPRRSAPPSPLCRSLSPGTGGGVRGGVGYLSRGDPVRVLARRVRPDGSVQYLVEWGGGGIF
Experimental: as §1

PHD finger protein 19 = PHD finger protein 19 (Homo sapiens, UniProt Q5T6S3); test: AlphaScreen Assay
Experimental: as §1

PHD finger protein 23 = PHD finger protein 23 (Homo sapiens, UniProt Q9BUL5); test: AlphaScreen Assay
Experimental: as §1

TP53-binding protein 1 [6] = molecular target: T5, TP53-binding protein 1 (Homo sapiens, UniProt Q12888); test: AlphaScreen Assay
Experimental: as §1

TP53-binding protein 1 [7] = molecular target: T5, TP53-binding protein 1; test: ITC
Experimental: All ITC measurements were recorded at 25 °C with an AutoITC200 microcalorimeter (MicroCal Inc.). All protein and compound stock samples were in the target buffer (25 mM Tris-HCl, pH 8, 150 mM NaCl, and 2 mM β-mercaptoethanol), and then diluted in the same buffer to achieve the desired concentrations: 90 200 μM protein and 1 2 mM compound depending on the expected dissociation constant. The concentration of protein stock solutions were established using the Edelhoch method, whereas 10 mM compound stock solutions were prepared gravimetrically based on molecular weight. A typical experiment included a single 0.2 μL compound injection into a 200 μL cell filled with protein, followed by 25 subsequent 1.5 μL injections of compound. Injections were performed with a spacing of 180 seconds and a reference power of 8 μcal/sec.

MBT domain-containing protein 1, sequence (Q05BQ5 whole entry, the tested form may be a part): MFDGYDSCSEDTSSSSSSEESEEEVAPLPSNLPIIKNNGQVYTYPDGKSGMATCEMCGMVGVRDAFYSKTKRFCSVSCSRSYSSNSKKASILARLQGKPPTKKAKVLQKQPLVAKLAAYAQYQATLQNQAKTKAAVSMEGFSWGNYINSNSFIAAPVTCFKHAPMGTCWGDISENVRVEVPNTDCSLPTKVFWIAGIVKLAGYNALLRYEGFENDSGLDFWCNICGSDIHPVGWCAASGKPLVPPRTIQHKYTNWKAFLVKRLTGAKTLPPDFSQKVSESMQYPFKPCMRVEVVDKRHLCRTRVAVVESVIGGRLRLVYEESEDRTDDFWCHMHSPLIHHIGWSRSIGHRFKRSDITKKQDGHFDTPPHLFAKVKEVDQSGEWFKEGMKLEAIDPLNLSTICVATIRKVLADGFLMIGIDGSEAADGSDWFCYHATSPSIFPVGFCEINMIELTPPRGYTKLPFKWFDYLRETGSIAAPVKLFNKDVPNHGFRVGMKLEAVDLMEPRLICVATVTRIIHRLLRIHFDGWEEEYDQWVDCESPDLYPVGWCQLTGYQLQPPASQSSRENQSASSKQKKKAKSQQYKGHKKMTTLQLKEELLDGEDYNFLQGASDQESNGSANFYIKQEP
Lysine-specific demethylase 5A, sequence (P29375 whole entry): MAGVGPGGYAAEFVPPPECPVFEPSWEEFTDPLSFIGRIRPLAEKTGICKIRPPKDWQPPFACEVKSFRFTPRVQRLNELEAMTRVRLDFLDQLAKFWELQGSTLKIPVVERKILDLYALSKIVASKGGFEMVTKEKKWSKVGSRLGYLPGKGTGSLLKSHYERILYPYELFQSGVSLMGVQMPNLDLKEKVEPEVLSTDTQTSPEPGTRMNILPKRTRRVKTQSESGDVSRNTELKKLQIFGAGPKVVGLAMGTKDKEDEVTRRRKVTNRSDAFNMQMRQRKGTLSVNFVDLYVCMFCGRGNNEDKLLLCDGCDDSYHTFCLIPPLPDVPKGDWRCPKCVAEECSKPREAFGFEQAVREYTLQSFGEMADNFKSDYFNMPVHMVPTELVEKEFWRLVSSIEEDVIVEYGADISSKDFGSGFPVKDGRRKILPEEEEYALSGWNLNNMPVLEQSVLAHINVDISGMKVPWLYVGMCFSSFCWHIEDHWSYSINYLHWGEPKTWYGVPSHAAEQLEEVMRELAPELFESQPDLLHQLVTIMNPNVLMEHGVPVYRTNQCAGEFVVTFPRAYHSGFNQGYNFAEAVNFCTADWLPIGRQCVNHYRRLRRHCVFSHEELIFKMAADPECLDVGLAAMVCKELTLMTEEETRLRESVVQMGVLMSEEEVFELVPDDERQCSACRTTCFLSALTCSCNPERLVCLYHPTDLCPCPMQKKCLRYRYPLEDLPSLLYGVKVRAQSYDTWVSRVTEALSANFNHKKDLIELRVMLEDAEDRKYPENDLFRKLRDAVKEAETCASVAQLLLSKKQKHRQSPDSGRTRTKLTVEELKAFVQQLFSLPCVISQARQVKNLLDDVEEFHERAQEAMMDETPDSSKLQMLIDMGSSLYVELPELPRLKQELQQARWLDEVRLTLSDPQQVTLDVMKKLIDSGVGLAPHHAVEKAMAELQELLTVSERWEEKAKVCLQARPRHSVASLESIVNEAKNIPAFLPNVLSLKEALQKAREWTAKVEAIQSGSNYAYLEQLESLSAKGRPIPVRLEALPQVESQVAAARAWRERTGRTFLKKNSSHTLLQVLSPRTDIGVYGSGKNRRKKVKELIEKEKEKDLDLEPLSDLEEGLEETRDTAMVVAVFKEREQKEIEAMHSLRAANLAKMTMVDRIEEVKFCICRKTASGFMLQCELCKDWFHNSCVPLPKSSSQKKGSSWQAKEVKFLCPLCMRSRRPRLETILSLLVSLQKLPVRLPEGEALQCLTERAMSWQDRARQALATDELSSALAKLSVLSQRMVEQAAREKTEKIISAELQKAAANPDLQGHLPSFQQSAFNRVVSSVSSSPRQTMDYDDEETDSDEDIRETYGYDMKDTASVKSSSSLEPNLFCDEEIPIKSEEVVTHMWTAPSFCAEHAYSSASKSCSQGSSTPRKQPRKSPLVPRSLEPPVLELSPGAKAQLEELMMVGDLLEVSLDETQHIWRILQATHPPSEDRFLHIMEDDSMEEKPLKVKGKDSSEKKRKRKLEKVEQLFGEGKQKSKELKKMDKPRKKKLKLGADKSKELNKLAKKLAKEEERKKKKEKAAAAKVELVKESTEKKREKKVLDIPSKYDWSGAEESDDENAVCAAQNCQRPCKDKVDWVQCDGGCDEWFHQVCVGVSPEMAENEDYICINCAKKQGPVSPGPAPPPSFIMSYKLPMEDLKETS
PHD finger protein 23, sequence (Q9BUL5 whole entry): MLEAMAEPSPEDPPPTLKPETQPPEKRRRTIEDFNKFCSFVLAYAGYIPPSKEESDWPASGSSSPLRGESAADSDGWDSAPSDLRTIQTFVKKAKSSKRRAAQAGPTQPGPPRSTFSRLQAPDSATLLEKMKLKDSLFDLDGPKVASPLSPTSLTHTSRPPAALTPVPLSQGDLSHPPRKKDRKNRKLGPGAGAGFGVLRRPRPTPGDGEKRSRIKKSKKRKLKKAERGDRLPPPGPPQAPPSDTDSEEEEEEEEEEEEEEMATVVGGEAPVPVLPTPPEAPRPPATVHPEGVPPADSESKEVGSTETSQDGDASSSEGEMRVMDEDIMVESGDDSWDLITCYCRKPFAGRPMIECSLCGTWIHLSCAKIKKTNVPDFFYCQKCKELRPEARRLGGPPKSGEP
T5 sequence (Q12888 whole entry): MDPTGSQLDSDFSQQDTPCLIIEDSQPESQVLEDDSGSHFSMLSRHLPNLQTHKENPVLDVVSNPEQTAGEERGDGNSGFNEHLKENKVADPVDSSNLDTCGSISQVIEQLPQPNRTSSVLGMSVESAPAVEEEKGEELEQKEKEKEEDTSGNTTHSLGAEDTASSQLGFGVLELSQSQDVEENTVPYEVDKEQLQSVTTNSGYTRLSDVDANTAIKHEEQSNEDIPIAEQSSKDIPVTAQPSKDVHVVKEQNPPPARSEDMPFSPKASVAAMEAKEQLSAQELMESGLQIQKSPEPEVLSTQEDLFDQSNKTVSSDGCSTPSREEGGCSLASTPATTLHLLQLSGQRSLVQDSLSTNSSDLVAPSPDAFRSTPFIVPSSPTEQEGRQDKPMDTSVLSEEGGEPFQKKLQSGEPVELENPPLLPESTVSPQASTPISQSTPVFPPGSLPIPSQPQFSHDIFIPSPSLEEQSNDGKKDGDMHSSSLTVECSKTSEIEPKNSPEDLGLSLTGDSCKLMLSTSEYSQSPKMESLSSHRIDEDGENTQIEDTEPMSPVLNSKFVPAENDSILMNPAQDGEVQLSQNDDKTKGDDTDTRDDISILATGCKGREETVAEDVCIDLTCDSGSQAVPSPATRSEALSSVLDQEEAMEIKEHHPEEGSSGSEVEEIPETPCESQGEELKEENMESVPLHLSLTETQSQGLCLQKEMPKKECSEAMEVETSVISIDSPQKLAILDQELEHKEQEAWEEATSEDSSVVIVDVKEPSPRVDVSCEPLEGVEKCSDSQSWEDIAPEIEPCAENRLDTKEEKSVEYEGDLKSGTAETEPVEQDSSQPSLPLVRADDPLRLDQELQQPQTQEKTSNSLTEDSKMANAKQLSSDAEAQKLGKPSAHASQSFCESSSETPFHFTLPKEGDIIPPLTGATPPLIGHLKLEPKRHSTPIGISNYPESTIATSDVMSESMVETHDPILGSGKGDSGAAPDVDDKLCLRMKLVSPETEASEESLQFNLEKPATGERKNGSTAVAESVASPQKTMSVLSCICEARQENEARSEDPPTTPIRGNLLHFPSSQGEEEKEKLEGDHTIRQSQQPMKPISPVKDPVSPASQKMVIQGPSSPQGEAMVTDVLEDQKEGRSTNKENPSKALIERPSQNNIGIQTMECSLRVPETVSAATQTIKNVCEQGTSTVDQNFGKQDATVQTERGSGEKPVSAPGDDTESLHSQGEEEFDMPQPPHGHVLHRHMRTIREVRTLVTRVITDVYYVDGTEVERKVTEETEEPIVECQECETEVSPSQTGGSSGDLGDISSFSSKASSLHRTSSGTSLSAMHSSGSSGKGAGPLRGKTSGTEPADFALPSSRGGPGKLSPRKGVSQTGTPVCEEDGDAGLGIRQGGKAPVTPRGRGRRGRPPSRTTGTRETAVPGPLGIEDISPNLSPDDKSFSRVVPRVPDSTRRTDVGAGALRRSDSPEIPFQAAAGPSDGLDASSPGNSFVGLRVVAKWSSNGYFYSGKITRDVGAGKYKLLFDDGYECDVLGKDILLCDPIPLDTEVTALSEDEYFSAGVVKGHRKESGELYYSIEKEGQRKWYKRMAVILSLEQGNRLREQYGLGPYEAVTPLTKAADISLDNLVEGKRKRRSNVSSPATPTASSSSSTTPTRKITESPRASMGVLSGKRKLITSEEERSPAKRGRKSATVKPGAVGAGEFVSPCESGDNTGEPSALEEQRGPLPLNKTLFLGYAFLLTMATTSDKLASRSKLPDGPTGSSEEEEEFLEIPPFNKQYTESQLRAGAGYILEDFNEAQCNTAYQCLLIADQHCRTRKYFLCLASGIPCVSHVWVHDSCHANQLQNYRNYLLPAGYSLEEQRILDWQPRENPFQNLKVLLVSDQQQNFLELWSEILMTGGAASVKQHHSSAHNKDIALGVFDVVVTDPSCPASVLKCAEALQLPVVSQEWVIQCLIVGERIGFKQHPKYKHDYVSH

Row | Kd (TP53-binding protein 1 [7]) [µM] | SMILES | IC50 [1] [µM] | IC50 [2] [µM] | IC50 [3] [µM] | IC50 [4] [µM] | IC50 [5] [µM] | IC50 (PHD finger protein 1) [µM] | IC50 (PHD finger protein 19) [µM] | IC50 (PHD finger protein 23) [µM] | IC50 (TP53-binding protein 1 [6]) [µM]
1 | – | CC(C)(C)OCCCNC(=O)c1cccc(Br)c1 [3-Bromo-N-(3-(tert-butoxy)propyl)benzamide (5)] | > 100 | > 100 | > 100 | > 100 | > 100 | > 100 | > 100 | > 100 | > 100
2 | – | CN(CCCNC(=O)c1cccc(Br)c1)C(C)(C)C [3-Bromo-N-(3-(tert-butyl(methyl)amino)propyl)benzamide (UNC2892, 4)] | > 500 | > 500 | > 500 | > 500 | > 500 | > 500 | > 500 | > 500 | > 500
3 | 22 | CC(C)(C)NCCCNC(=O)c1cccc(Br)c1 [3-Bromo-N-(3-(tert-butylamino)propyl)benzamide (UNC2170, 1)] | > 500 | > 500 | > 500 | > 500 | > 500 | > 500 | > 500 | > 500 | 29
